Measurements from US10966978B2, “Dose and regimen for HDM2-p53 interaction inhibitors” (Novartis AG, priority 2016, dated 2021).
Read-outs that look alike come from different tables or passages of the source.

Test system: patients with advanced TP53 wild-type (WT) leukemias
From the text: Patients with Ph+ ALL who show early markers of relapse in MRD surveillance can be considered for inclusion as long as other therapies such as TKIs are exhausted or cannot be given. • Tumor of the patient is TP53 wt characterized by, at a minimum, no mutations in exons 5, 6, 7 and 8, and the p53 status was obtained from a bone-marrow sample, collected no longer than 3 months before signing the main ICF. Safety and Tolerability Profile of Regimen 1B in Hematological Tumors

COc1ncc(-c2nc3c(n2C(C)C)[C@H](c2ccc(Cl)cc2)N(c2cc(Cl)cn(C)c2=O)C3=O)c(OC)n1 [HDM201, (S)-5-(5-Chloro-1-methyl-2-oxo-1,2-dihydro-pyridin-3-yl)-6-(4-chloro-phenyl)-2-(2,4-dimethoxy-pyrimidin-5-yl)-1-isopropyl-5,6-dihydro-1H-pyrrolo[3,4-d]imidazol-4-one]
0 n (%): AE: Haemoglobin Decreased (Regimen 2A N = 7, Grade 3/4) | AE: Headache (Regimen 2A N = 7, Grade 3/4) | AE: Hyperbilirubinaemia (Regimen 2A N = 7, Grade 3/4) | AE: Hyperglycaemia (Regimen 2A N = 7, Grade 3/4) | AE: Hyperkalaemia (Regimen 2A N = 7, Grade 3/4) | AE: Hyperphosphataemia (Regimen 2A N = 7, Grade 3/4) | AE: Hyperuricaemia (Regimen 2A N = 7, Grade 3/4) | AE: Hypoalbuminaemia (Regimen 2A N = 7, Grade 3/4) | AE: Hypocalcaemia (Regimen 2A N = 7, Grade 3/4) | AE: Hypokalaemia (Regimen 2A N = 7, Grade 3/4) | AE: Hypomagnesaemia (Regimen 2A N = 7, Grade 3/4) | AE: Hyponatraemia (Regimen 2A N = 7, Grade 3/4) | AE: Hypophosphataemia (Regimen 2A N = 7, Grade 3/4) | AE: Hypotension (Regimen 2A N = 7, Grade 3/4) | AE: Infection (Regimen 2A N = 7, Grade 3/4) | AE: Infective Glossitis (Regimen 2A N = 7, Grade 3/4) | AE: Iron Overload (Regimen 2A N = 7, Grade 3/4) | AE: Leukopenia (Regimen 2A N = 7, Grade 3/4) | AE: Lip Oedema (Regimen 2A N = 7, Grade 3/4) | AE: Lipase Increased (Regimen 2A N = 7, Grade 3/4) | AE: Macular Oedema (Regimen 2A N = 7, Grade 3/4) | AE: Malaise (Regimen 2A N = 7, Grade 3/4) | AE: Mouth Haemorrhage (Regimen 2A N = 7, Grade 3/4) | AE: Nausea (Regimen 2A N = 7, Grade 3/4) | AE: Oedema (Regimen 2A N = 7, Grade 3/4) | AE: Oedema Peripheral (Regimen 2A N = 7, Grade 3/4) | AE: Oral Disorder (Regimen 2A N = 7, Grade 3/4) | AE: Pain In Extremity (Regimen 2A N = 7, Grade 3/4) | AE: Pancytopenia (Regimen 2A N = 7, Grade 3/4) | AE: Pneumonia (Regimen 2A N = 7, Grade 3/4) | AE: Pollakiuria (Regimen 2A N = 7, Grade 3/4) | AE: Pyrexia (Regimen 2A N = 7, Grade 3/4) | AE: Rash (Regimen 2A N = 7, Grade 3/4) | AE: Rash Erythematous (Regimen 2A N = 7, Grade 3/4) | AE: Rash Papular (Regimen 2A N = 7, Grade 3/4) | AE: Rectal Haemorrhage (Regimen 2A N = 7, Grade 3/4) | AE: Renal Failure (Regimen 2A N = 7, Grade 3/4) | AE: Skin Exfoliation (Regimen 2A N = 7, Grade 3/4) | AE: Stomatitis (Regimen 2A N = 7, Grade 3/4) | AE: Subarachnoid Haemorrhage (Regimen 2A N = 7, Grade 3/4) | AE: Vomiting (Regimen 2A N = 7, Grade 3/4) | AE: Weight Decreased (Regimen 2A N = 7, Grade 3/4) | AE: Abdominal Discomfort (Regimen 2C N = 8, All Grades) | AE: Abdominal Pain (Regimen 2C N = 8, All Grades) | AE: Abdominal Pain Upper (Regimen 2C N = 8, All Grades) | AE: Amylase Increased (Regimen 2C N = 8, All Grades) | AE: Arthralgia (Regimen 2C N = 8, All Grades) | AE: Atrial Fibrillation (Regimen 2C N = 8, All Grades) | AE: Atypical Pneumonia (Regimen 2C N = 8, All Grades) | AE: Balanitis Candida (Regimen 2C N = 8, All Grades) | AE: Blood Alkaline Phosphatase Increased (Regimen 2C N = 8, All Grades) | AE: Blood Bilirubin Increased (Regimen 2C N = 8, All Grades) | AE: Blood Phosphorus Increased (Regimen 2C N = 8, All Grades) | AE: Blood Uric Acid Increased (Regimen 2C N = 8, All Grades) | AE: Bone Marrow Failure (Regimen 2C N = 8, All Grades) | AE: C-Reactive Protein Increased (Regimen 2C N = 8, All Grades) | AE: Cardiac Failure (Regimen 2C N = 8, All Grades) | AE: Cellulitis (Regimen 2C N = 8, All Grades) | AE: Chronic Graft Versus Host Disease (Regimen 2C N = 8, All Grades) | AE: Conjunctival Haemorrhage (Regimen 2C N = 8, All Grades) | AE: Cough (Regimen 2C N = 8, All Grades) | AE: Cystitis Viral (Regimen 2C N = 8, All Grades) | AE: Cytomegalovirus Infection (Regimen 2C N = 8, All Grades) | AE: Dyspepsia (Regimen 2C N = 8, All Grades) | AE: Dyspnoea (Regimen 2C N = 8, All Grades) | AE: Gamma-Glutamyltransferase Increased (Regimen 2C N = 8, All Grades) | AE: General Physical Health Deterioration (Regimen 2C N = 8, All Grades) | AE: Gingival Bleeding (Regimen 2C N = 8, All Grades) | AE: Graft Versus Host Disease (Regimen 2C N = 8, All Grades) | AE: Haemoglobin Decreased (Regimen 2C N = 8, All Grades) | AE: Headache (Regimen 2C N = 8, All Grades) | AE: Hyperbilirubinaemia (Regimen 2C N = 8, All Grades) | AE: Hyperglycaemia (Regimen 2C N = 8, All Grades) | AE: Hyperkalaemia (Regimen 2C N = 8, All Grades) | AE: Hypoalbuminaemia (Regimen 2C N = 8, All Grades) | AE: Hypocalcaemia (Regimen 2C N = 8, All Grades) | AE: Hypokalaemia (Regimen 2C N = 8, All Grades) | AE: Hypomagnesaemia (Regimen 2C N = 8, All Grades) | AE: Hyponatraemia (Regimen 2C N = 8, All Grades) | AE: Hypophosphataemia (Regimen 2C N = 8, All Grades) | AE: Hypotension (Regimen 2C N = 8, All Grades) | AE: Infection (Regimen 2C N = 8, All Grades) | AE: Iron Overload (Regimen 2C N = 8, All Grades) | AE: Leukopenia (Regimen 2C N = 8, All Grades) | AE: Lip Oedema (Regimen 2C N = 8, All Grades) | AE: Lipase Increased (Regimen 2C N = 8, All Grades) | AE: Macular Oedema (Regimen 2C N = 8, All Grades) | AE: Malaise (Regimen 2C N = 8, All Grades) | AE: Mouth Haemorrhage (Regimen 2C N = 8, All Grades)
2 (28.6) n (%): AE: Thrombocytopenia/Platelet Count Decreased (Regimen 2A N = 7, Grade 3/4)
3 (42.9) n (%): AE: Total (Regimen 2A N = 7, Grade 3/4)
5 (62.5) n (%): AE: Anaemia (Regimen 2C N = 8, All Grades)
1 (12.5) n (%): AE: Blood Creatinine Increased (Regimen 2C N = 8, All Grades) | AE: Constipation (Regimen 2C N = 8, All Grades) | AE: Epistaxis (Regimen 2C N = 8, All Grades) | AE: Hyperphosphataemia (Regimen 2C N = 8, All Grades) | AE: Infective Glossitis (Regimen 2C N = 8, All Grades)
4 (50.0) n (%): AE: Decreased Appetite (Regimen 2C N = 8, All Grades)
2 (25.0) n (%): AE: Asthenia (Regimen 2C N = 8, All Grades) | AE: Diarrhoea (Regimen 2C N = 8, All Grades) | AE: Fatigue (Regimen 2C N = 8, All Grades)
1 (14.3) n (%): AE: Neutropenia/Neutrophil Count Decreased (Regimen 2A N = 7, Grade 3/4) | AE: Tumour Lysis Syndrome (Regimen 2A N = 7, Grade 3/4) | AE: White Blood Cell Count Decreased (Regimen 2A N = 7, Grade 3/4)
3 (37.5) n (%): AE: Febrile Neutropenia (Regimen 2C N = 8, All Grades)
